# In ChEMBL document CHEMBL2331167, “Inhibitory effect of novel somatostatin peptide analogues on human cancer cell growth based on the selective inhibition of DNA polymerase β” (Bioorg Med Chem, 2013):
# Activity calls are given as the source filed them. The rule behind the calls is not given here.
# How the values were obtained:
# HCT-116 [1] = experiment: Induction of apoptosis in p53 +/+ human HCT116 cells assessed as apoptotic cells at 13.2 uM incubated for 24 hrs by TUNEL analysis; type: functional
# DNA polymerase lambda = molecular target: T1, DNA polymerase lambda (Homo sapiens, UniProt Q9UGP5); experiment: Inhibition of human DNA polymerase lambda using poly(dA)/oligo(dT)18 (A/T, 2/1)/dTTP DNA template-primer substrate measured at 37 degC for 60 mins
# T1 sequence (Q9UGP5 whole entry): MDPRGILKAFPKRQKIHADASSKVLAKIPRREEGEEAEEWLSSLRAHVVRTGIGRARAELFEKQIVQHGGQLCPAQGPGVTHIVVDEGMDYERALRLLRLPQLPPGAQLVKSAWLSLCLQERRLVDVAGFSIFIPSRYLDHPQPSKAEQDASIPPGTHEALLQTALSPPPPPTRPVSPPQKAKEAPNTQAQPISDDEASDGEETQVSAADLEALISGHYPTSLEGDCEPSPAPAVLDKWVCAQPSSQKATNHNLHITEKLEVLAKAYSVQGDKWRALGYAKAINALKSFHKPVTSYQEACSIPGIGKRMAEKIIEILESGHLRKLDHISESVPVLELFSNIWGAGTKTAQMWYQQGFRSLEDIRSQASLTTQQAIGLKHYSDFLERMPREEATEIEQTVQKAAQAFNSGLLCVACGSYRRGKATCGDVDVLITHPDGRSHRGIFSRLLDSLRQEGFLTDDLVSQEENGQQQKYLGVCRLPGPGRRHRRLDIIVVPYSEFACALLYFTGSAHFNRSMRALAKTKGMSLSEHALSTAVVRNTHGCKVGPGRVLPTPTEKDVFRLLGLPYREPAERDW
# HCT-116 [2] = experiment: Cytotoxicity against p53 +/+ human HCT116 cells assessed as growth inhibition at 200 uM incubated for 24 hrs by WST-1 assay; type: functional, cell-based
# HCT-116 [3] = experiment: Cytotoxicity against MMS-induced p53 -/- human HCT116 cells assessed as reduction in clonogenic survival at 13.7 uM incubated for 24 hrs by WST-1 assay relative to control; type: functional
# [4] = Cytotoxicity against human dermal fibroblasts; settings: hdf
# DNA polymerase kappa = molecular target: T2, DNA polymerase kappa (Homo sapiens, UniProt Q9UBT6); experiment: Inhibition of human DNA polymerase kappa using poly(dA)/oligo(dT)18 (A/T, 2/1)/dTTP DNA template-primer substrate measured at 37 degC for 60 mins
# T2 sequence (Q9UBT6 whole entry): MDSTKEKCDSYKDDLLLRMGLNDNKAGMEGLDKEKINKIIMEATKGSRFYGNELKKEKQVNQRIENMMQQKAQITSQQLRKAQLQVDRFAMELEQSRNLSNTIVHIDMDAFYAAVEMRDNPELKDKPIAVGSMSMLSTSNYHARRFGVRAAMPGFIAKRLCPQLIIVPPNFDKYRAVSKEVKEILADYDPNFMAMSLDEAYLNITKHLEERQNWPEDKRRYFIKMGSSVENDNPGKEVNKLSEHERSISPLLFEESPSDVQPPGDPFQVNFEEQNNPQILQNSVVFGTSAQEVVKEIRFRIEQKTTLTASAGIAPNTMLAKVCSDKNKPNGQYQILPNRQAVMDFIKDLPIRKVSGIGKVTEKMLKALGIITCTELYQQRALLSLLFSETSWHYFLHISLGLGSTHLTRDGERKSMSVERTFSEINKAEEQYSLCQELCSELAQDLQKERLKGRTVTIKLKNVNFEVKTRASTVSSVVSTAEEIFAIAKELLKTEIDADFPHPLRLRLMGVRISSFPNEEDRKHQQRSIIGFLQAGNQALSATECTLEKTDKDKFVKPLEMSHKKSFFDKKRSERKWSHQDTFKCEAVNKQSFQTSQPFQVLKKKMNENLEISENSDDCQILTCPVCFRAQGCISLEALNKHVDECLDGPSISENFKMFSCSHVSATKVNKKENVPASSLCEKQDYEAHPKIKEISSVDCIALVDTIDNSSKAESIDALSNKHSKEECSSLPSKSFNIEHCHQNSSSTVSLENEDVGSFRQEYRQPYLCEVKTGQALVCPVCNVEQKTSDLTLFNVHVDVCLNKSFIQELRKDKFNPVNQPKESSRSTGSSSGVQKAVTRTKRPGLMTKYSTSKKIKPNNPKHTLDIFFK
# [5] = molecular target: T3, DNA polymerase delta catalytic subunit (Homo sapiens, UniProt P28340); experiment: Inhibition of human DNA polymerase delta using poly(dA)/oligo(dT)18 (A/T, 2/1)/dTTP DNA template-primer substrate measured at 37 degC for 60 mins
# T3 sequence (P28340 whole entry): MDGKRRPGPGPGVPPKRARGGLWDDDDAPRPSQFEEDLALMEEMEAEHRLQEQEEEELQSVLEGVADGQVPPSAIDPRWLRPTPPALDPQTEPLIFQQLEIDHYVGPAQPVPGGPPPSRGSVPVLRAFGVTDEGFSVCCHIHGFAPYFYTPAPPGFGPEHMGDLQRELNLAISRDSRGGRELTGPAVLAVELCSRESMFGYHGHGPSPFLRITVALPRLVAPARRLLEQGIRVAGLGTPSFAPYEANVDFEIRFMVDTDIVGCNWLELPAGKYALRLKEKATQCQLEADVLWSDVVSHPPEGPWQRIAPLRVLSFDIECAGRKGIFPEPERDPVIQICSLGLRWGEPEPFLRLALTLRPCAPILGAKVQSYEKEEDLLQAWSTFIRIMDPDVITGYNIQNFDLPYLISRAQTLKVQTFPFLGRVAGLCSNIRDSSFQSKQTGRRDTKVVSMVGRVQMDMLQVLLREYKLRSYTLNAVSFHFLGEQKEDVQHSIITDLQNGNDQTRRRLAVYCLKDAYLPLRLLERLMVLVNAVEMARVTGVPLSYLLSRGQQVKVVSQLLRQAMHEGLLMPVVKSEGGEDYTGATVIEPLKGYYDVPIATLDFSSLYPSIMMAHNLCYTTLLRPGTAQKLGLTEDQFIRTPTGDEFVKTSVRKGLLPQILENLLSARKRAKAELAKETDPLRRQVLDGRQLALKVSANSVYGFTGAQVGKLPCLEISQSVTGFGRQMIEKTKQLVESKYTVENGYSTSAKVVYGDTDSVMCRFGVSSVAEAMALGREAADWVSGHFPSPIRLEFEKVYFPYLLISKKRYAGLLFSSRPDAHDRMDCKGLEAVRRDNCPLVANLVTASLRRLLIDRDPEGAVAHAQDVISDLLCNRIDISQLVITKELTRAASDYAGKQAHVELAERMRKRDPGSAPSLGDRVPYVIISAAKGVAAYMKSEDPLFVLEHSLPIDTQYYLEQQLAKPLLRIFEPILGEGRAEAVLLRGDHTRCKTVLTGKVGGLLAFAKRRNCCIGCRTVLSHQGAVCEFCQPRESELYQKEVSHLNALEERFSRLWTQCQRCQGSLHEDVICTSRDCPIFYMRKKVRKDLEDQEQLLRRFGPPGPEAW
structure (smiles),measurement,setting,value
CC[C@H](C)[C@H](NC(=O)[C@H](Cc1ccc(O)cc1)NC(=O)OC(C)(C)C)C(=O)Nc1cccc2ccccc12,fold change (FC),HCT-116 [1],5
same,IC50,DNA polymerase lambda,> 200 µM
same,growth inhibition (GI),HCT-116 [2],Active
same,fold change (FC),HCT-116 [3],25
same,Activity,[4],Non-toxic
same,IC50,DNA polymerase kappa,> 200 µM
same,IC50,[5],> 200 µM
